Measurements reported in PubChem BioAssay (NCI).
Values joined by “and” are separate entries in the source; they are usually repeats but may differ in a detail not shown here. Identical values can stand only once.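 Five concentrations, 48 hours, 96-well plates. GI50 = concentration required for 50% inhibition of growth. TGI marks complete inhibition of growth.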

Key:
Test in all cases: NCI-60 cell line screen, 48 h
[1] = test system: NCI/ADR-RES ovarian
[2] = test system: HOP-62 NSCLC
[3] = test system: SF-268 CNS
[4] = test system: 786-0 renal
[5] = test system: HOP-92 NSCLC
[6] = test system: MALME-3M melanoma
[7] = test system: LOX IMVI melanoma
[8] = test system: CCRF-CEM leukemia
[9] = test system: OVCAR-3 ovarian
[10] = test system: A498 renal

`c1ccc2c[n+](Cc3ccnc4ccccc34)ccc2c1` was tested, and the TGI [1] was > 100 µM, the TGI [2] was > 100 µM and the TGI [3] was > 100 µM. The TGI [4] was > 100 µM, the TGI [5] was > 100 µM and the TGI [6] was > 100 µM. The TGI [7] was > 100 µM, the TGI [8] was > 100 µM and the TGI [9] was > 100 µM. For the same compound, the TGI [10] was > 100 µM.

`O=C1N(c2ccccc2)N=C2c3ccncc3C3=NN(c4ccccc4)C(=O)C123` (configuration not stated) was tested, and the TGI [1] was > 100 µM, the TGI [2] was > 100 µM and the TGI [3] was > 100 µM. The TGI [4] was > 100 µM, the TGI [5] was > 100 µM and the TGI [6] was > 100 µM. The TGI [7] was > 100 µM, the TGI [8] was > 100 µM and the TGI [9] was > 100 µM. For the same compound, the TGI [10] was > 100 µM.

For `CN(C)CCNc1nc2c(c(=O)n(C)c(=O)n2C)n1C`, the TGI [1] was > 100 µM, the TGI [2] was > 100 µM and the TGI [3] was > 100 µM. For the same compound, the TGI [4] was > 100 µM, the TGI [5] was > 100 µM and the TGI [6] was > 100 µM. For the same compound, the TGI [7] was > 100 µM, the TGI [8] was > 100 µM and the TGI [9] was > 100 µM. The TGI [10] was > 100 µM.

With `CCOc1ccnc2c(OC)c(C)c3nc4ccccc4nc3c12` the TGI [1] was > 100 µM, the TGI [2] was > 100 µM and the TGI [3] was > 100 µM. The TGI [4] was > 100 µM, the TGI [5] was > 100 µM and the TGI [6] was > 100 µM. For the same compound, the TGI [7] was > 100 µM, the TGI [8] was > 100 µM and the TGI [9] was > 100 µM. The TGI [10] was > 100 µM.

For `CCOC(=O)CCNC(=O)c1cc(C)cc2c1Oc1c(cc(C)cc1C(=O)NCCC(=O)OCC)S2`, the TGI [1] was > 100 µM, the TGI [2] was > 100 µM and the TGI [3] was > 100 µM. The TGI [4] was > 100 µM, the TGI [5] was 87.8 µM and the TGI [6] was > 100 µM. The TGI [7] was > 100 µM, the TGI [8] was > 100 µM and the TGI [9] was > 100 µM. It also gave a TGI [10] of 90.8 µM.

For `CN(C)C=Nc1cccc2c1NSN2`, the TGI [1] was > 100 µM, the TGI [2] was > 100 µM and the TGI [3] was > 100 µM. The TGI [4] was > 100 µM, the TGI [5] was > 100 µM and the TGI [6] was > 100 µM. The TGI [7] was > 100 µM, the TGI [8] was > 100 µM and the TGI [9] was > 100 µM. For the same compound, the TGI [10] was > 100 µM.

For `O=[N+]([O-])C(=C(\Cl)NCCO)/C(Cl)=C(/Cl)Br`, the TGI [1] was 7.42 µM, the TGI [2] was 29 µM and the TGI [3] was 4.56 µM. The TGI [4] was 2.75 µM, the TGI [5] was 3.53 µM and the TGI [6] was 3.8 µM. For the same compound, the TGI [7] was 2.19 µM, the TGI [8] was 2.01 µM and the TGI [9] was 2.62 µM. The TGI [10] was 12 µM.

In the case of `COc1ccc(-c2c(C#N)c(N)n(C3OC(COC(C)=O)C(OC(C)=O)C(OC(C)=O)C3OC(C)=O)c(=S)c2C#N)cc1` (configuration not stated), the TGI [1] is reported as > 100 µM, the TGI [2] is reported as 89.1 µM and 51.6 µM and the TGI [3] is reported as > 100 µM and 88.3 µM. For the same compound, the TGI [4] was > 100 µM and 75.5 µM, the TGI [5] was 82.8 µM and 49.4 µM and the TGI [6] was > 100 µM and 75.7 µM. The TGI [7] was > 100 µM, the GI50 [8] was > 100 µM and 46.5 µM and the TGI [8] was > 100 µM. For the same compound, the GI50 [9] was 44.4 µM and 15.1 µM, the TGI [9] was > 100 µM and 32.3 µM and the TGI [10] was 91.4 µM and 63.5 µM.

With `CCN(CC)C(=O)CCNC(C)Cc1c[nH]c2ccccc12` (configuration not stated) the TGI [1] was > 100 µM, the TGI [2] was > 100 µM and the TGI [3] was > 100 µM. The TGI [4] was > 100 µM, the TGI [5] was > 100 µM and the TGI [6] was > 100 µM. For the same compound, the TGI [7] was > 100 µM, the TGI [8] was > 100 µM and the TGI [9] was > 100 µM. For the same compound, the TGI [10] was > 100 µM.

With `CC(C)[Si](CC1=CCCCC12C(=O)N(COCC[Si](C)(C)C)c1ccccc12)(C(C)C)C(C)C` (configuration not stated) the TGI [1] was > 100 µM, the TGI [2] was > 100 µM and the TGI [3] was > 100 µM. For the same compound, the TGI [4] was > 100 µM, the TGI [5] was > 100 µM and the TGI [6] was > 100 µM. For the same compound, the TGI [7] was > 100 µM, the TGI [8] was 36.6 µM and the TGI [9] was > 100 µM. For the same compound, the TGI [10] was > 100 µM.

With `O=C1CCCC1C(O)(C(F)(F)Cl)C(F)(F)Cl` (configuration not stated) the TGI [1] was > 10 µM, the TGI [2] was > 10 µM and the TGI [3] was > 10 µM. For the same compound, the TGI [4] was > 10 µM, the TGI [5] was > 10 µM and the TGI [6] was > 10 µM. The TGI [7] was > 10 µM, the TGI [8] was > 10 µM and the TGI [9] was > 10 µM. For the same compound, the TGI [10] was > 10 µM.

`COc1ccc2oc(=O)c(-c3nc4ccccc4s3)cc2c1` was tested, and the TGI [1] was > 96 µM, the TGI [2] was > 48.1 µM and the TGI [3] was > 100 µM. For the same compound, the TGI [4] was 20.5 µM, the TGI [5] was 58.2 µM and the TGI [6] was 28.2 µM. The TGI [7] was 49.5 µM, the TGI [8] was > 75.6 µM and the TGI [9] was 43.7 µM. For the same compound, the TGI [10] was 54.2 µM.

With `COC(=O)/C=C/c1cc(OC)c2c(c1)C(C(=O)OC)C(c1ccc(O)c(OC)c1)O2` (configuration not stated) the GI50 [1] was 3.4 µM and 2.76 µM and 1.68 µM, the TGI [1] was > 33.9 µM and 26.6 µM and 12.9 µM and the GI50 [2] was 12 µM and 5.12 µM and 7.2 µM. The TGI [2] was > 100 µM, the TGI [3] was > 100 µM and the TGI [4] was > 100 µM and > 49.7 µM and 36.3 µM. The GI50 [5] was > 37.2 µM and 12.4 µM and 16.9 µM, the TGI [5] was > 100 µM and the TGI [6] was > 100 µM and 37.4 µM. The GI50 [7] was 7.16 µM and 4.36 µM and 1.04 µM, the TGI [7] was > 100 µM and 22.3 µM and 25.3 µM and the GI50 [8] was 3.4 µM and 3.35 µM and 0.699 µM. The GI50 [9] was 4.97 µM and 3.89 µM and 2 µM, the TGI [9] was > 27 µM and > 25.6 µM and 19.8 µM and the TGI [10] was > 65.4 µM and > 100 µM and 77.3 µM.

For `COC(=O)CC(c1ccccc1)C(C#N)(OP1(=O)OC(c2ccccc2)C(C)N1C)c1ccccc1` (configuration not stated), the TGI [1] was > 100 µM, the TGI [2] was > 100 µM and the TGI [3] was > 100 µM. The TGI [4] was > 100 µM, the TGI [5] was > 100 µM and the TGI [6] was > 100 µM. For the same compound, the TGI [7] was > 100 µM, the TGI [8] was > 100 µM and the TGI [9] was > 100 µM. For the same compound, the TGI [10] was > 100 µM.

In the case of `COc1ccc(C2=Nn3c(C)nnc3S/C2=C\c2ccc(-c3ccc([N+](=O)[O-])cc3)o2)cc1`, the TGI [1] is reported as 23.2 µM, the TGI [2] is reported as > 100 µM and the TGI [3] is reported as 47.1 µM. For the same compound, the TGI [4] was 22 µM, the TGI [5] was 62.2 µM and the TGI [6] was 86.3 µM. For the same compound, the TGI [7] was 30.3 µM, the TGI [8] was > 100 µM and the TGI [9] was 33 µM. The TGI [10] was 89.8 µM.

`CCN(CC)CCCNc1c2cc(OC)ccc2nc2cccc([N+](=O)[O-])c12` showed a TGI [1] of 1.51 µM, a TGI [2] of 0.412 µM and a TGI [3] of 0.593 µM. It also gave a TGI [4] of 0.464 µM, a TGI [5] of 0.239 µM and a TGI [6] of 0.263 µM. It also gave a TGI [7] of 0.196 µM, a TGI [8] of 0.582 µM and a TGI [9] of 0.176 µM. The TGI [10] was 0.0647 µM.

In the case of `NC(=O)NC(=O)c1cccc(C(=O)NC(N)=O)n1`, the TGI [1] is reported as > 100 µM, the TGI [2] is reported as > 100 µM and the TGI [3] is reported as > 100 µM. The TGI [4] was > 100 µM, the TGI [5] was > 100 µM and the TGI [6] was > 100 µM. For the same compound, the TGI [7] was > 100 µM, the TGI [8] was > 100 µM and the TGI [9] was > 100 µM. The TGI [10] was > 100 µM.

In the case of `Cc1nc2ccccc2n1Cc1ccc(NC(=S)NC2CCCCC2)cc1`, the TGI [1] is reported as > 100 µM, the TGI [2] is reported as > 100 µM and the TGI [3] is reported as > 100 µM. For the same compound, the TGI [4] was > 100 µM, the TGI [5] was > 100 µM and the TGI [6] was > 100 µM. The TGI [7] was > 100 µM, the TGI [8] was > 100 µM and the TGI [9] was > 70.3 µM. The TGI [10] was > 100 µM.
